From US8841277B2, “Methods for treating non-small cell lung cancer using 5-azacytidine” (Celgene Corporation, priority 2009, dated 2014)
“Also recorded” adds a separate entry of the source. Read-outs that look alike come from different tables or passages of the source.

How the values were obtained:
NSCLC cells = experiment: Western analysis of DNA damage and cell death markers, summary; type: cell-based; conditions: H460, A549, H1299 studies
Procedure: (§1) These studies also examined apoptosis using an assay for PARP cleavage. Cells studied included H460, A549, and H1299 cells.
(§2) For western analyses of protein levels, cells were washed with PBS and lysed with RIPA buffer (Cell Signaling Technology, Inc.; Danvers, Mass.) containing 350 mM NaCl and 0.1% SDS. Cell lysates were sonicated with two 5-second bursts under low amplitude (20%) using the Digital Sonic Dismembrator (Thermo Fisher Scientific, Inc.; Waltham, Mass.). Proteins were separated on 4-12% Bis-Tris NuPAGE gels (Life Technologies Corporation) and transferred to nitrocellulose membranes. DNMT1, phos-Histone-H2AX(Ser139), total Histone-H2AX, cleaved-PARP, p21, p53, and alpha-tubulin were detected using the Li-Cor Odyssey imaging system (Li-Cor Biotechnology; Lincoln, Nebr.), following incubation with the appropriate primary and secondary antibodies. The phos-Histone-H2AX(Ser139), cleaved-PARP, and p21 antibodies were from Cell Signaling Technology, Inc. The p53 and total Histone-H2AX (C-20) antibodies were from Santa Cruz Biotechnology, Inc. (Santa Cruz, Calif.). The alpha-tubulin and DNMT1 antibodies were purchased from EMD Chemicals, Inc. (Gibbstown, N.J.) and Abcam, Inc. (Cambridge, Mass.), respectively. The goat anti-Rabbit IRDye 680, goat anti-Mouse IRDye 800CW, and donkey anti-Goat IRDye 800CW secondary antibodies were from Li-Cor Biotechnology.

H460 cells [1] = experiment: Cell viability (CyQuant assay), H460; type: cell-based; conditions: for HillSlope / LogIC50 / IC50: H460 viability, best-fit value
Procedure: (§3) Certain NSCLC cell lines (H460, H1299, A549, and H1975) were purchased from American Type Culture Collection (ATCC; Manassas, Va.). The H23NSCLC cell line was obtained from the National Cancer Institute (NCI; Bethesda, Md.). Cell lines were cultured in their respective media, as recommended by ATCC and NCI. AZA was manufactured at Aptuit (Greenwich, Conn.) for Celgene (Summit, N.J.), while DAC was purchased from Sigma-Aldrich (St. Louis, Mo.). In all experiments, cells were seeded 24 hours before drug treatment and incubated at 37° C./5% CO2, For cell viability assays, H460, H1299, A549, H23, and H1975 cells were seeded in triplicate at 1×10^3, 1×10^3, 1×10^3, 4×10^3, and 4×10^3 cells per well, respectively, in 96-well plates, using 200 μL of medium per well. Fresh drug was added every 24 hours by replacing medium with drug-containing medium. For all other assays, cells were seeded at 0.6-1.2×10^5 cells per well, in 6-well plates, using 4 mL of medium per well, with fresh drug added directly to the medium every 24 hours.
(§4) Cell viability was assessed using the CyQuant assay (Life Technologies Corporation; Carlsbad, Calif.). Fluorescence was measured with a spectrophotometer (Molecular Devices; Sunnyvale, Calif.), and EC50 values were calculated in Prism® version 5.01 (GraphPad Software, Inc.; La Jolla, Calif.), using results from three independent experiments.
(§5) The six data sets represent calculations of EC50 values from raw data using Prism®. The standard deviation among the three independent experiments was determined at each drug concentration. For some of the cell lines, Prism® was not able to calculate the EC50 for DAC. For those curves that an EC50 was available, the SE (Std. Error) was acceptable (SE of the logEC50 should be less than 0.5), meaning that the standard errors were not too large. The 95% Confidence Intervals for the EC50 were considered as a measure of error.

H460 cells [2] = experiment: Apoptosis (AnnexinV-FITC/7-AAD), H460; type: cell-based; conditions: 0.3-10 μM
From the text: (§6) For cell cycle distribution, cells were stained with the NIM-DAPI reagent (Beckman Coulter, Inc.; Fullerton, Calif.). For measurement of early- and late-apoptotic cell populations, cells were stained with AnnexinV-FITC and 7-AAD reagents (Beckman Coulter, Inc.). Samples were processed according to manufacturer's instructions and analyzed on a Cell Lab Quanta MPL flow cytometer (Beckman Coulter, Inc.). […] Data were also collected for untreated cells as control.

H1975 cells = experiment: Cell viability (CyQuant assay), H1975; type: cell-based; conditions: 72 hours; for HillSlope / LogIC50 / IC50: H1975 viability, best-fit value; for EC50 / IC50: Homo sapiens, NCI-H1975; for EC50: H1975, read-out: EC50 of effect on viability
Procedure: as §3, §4, §5

H1299 cells [3] = experiment: Western analysis of DNA damage and apoptosis markers, H1299; type: cell-based
Procedure: as §1, §2

A549 cells [4] = experiment: Cell viability (CyQuant assay), A549; type: cell-based; conditions: 72 hours; for HillSlope / LogIC50 / IC50: A549 viability, best-fit value; for LogIC50: log(inhibitor) vs. normalized response -- Variable slope; for EC50 / IC50: Homo sapiens; for EC50: A549, read-out: EC50 of effect on viability
Procedure: as §3, §4, §5

A549 cells [5] = experiment: Cell cycle distribution (NIM-DAPI), A549; type: cell-based
From the text: These studies examined the cell cycle distribution of NSCLC cells treated with AZA or DAC using NIM-DAPI analysis.
as §6

[6] = tested on: LINE-1 elements in H1299 cells; experiment: LINE-1 Methylation Assay, H1299; type: cell-based; conditions: for DNA hypomethylation (LINE-1 methylation): 48 hours or 72 hours
Procedure: Genomic DNA was purified from cells using the DNeasy Blood and Tissue Kit (Qiagen; Valencia, Calif.), according to the manufacturer's instructions. DNA yield was quantitated with a NanoDrop 8000 spectrophotometer (Thermo Fisher Scientific, Inc.). DNAs (1 μg/sample) were submitted to EpigenDx (Worcester, Mass.) for bisulfate conversion and pyrosequencing of LINE-1 elements. Briefly, 1 μg of DNA was bisulfite-treated using the Zymo DNA Methylation Kit (Zymo Research; Orange, Calif.) and eluted in 10 μL volume. DNA eluate (1 μL) was used for PCR with biotinylated primers to the LINE-1 locus, converting the PCR product to single-stranded DNA templates. PCR products (each 10 μL) were sequenced by Pyrosequencing PSQ96 HS System (Biotage AB), following the manufacturer's instructions (Biotage; Kungsgatan, Sweden). The methylation status of each locus was analyzed individually as a T/C SNP using QCpG software (Biotage). Percent LINE-1 methylation represents the average percent methylation of four CpG sites in duplicate samples.
At the highest drug concentration tested (3 μM), LINE-1 methylation was less affected, possibly due to reduced drug incorporation as a result of inhibited cell proliferation.

H1299 cells [7] = experiment: Apoptosis (AnnexinV-FITC/7-AAD), H1299; type: cell-based; conditions: 0.3-10 μM
From the text: as §6

[8] = administered at 15 mg/m^2; cited from earlier work
[9] = Homo sapiens, NCI-H460, 72 hours
[10] = 0.3-10 μM, up to 3 days of treatment

| Compound | HillSlope (H460 cells [1]; 72 hours) | LogIC50 (H460 cells [1]; 72 hours) | IC50 (H460 cells [1]; [9]) | Early- and late-apoptotic cell populations (AnnexinV/7-AAD) (H460 cells [2]; 30-hour treatment) | Early- and late-apoptotic cell populations (AnnexinV/7-AAD) (H460 cells [2]; 48-hour treatment) | HillSlope (H1975 cells) | LogIC50 (H1975 cells) | EC50 (H1975 cells) | IC50 (H1975 cells) | Induction of Histone H2AX phosphorylation (H1299 cells [3]; [10]) | Induction of PARP cleavage (H1299 cells [3]; [10]) | HillSlope (A549 cells [4]) | LogIC50 (A549 cells [4]) | EC50 (A549 cells [4]) | IC50 (A549 cells [4]) | Cell cycle distribution (NIM DAPI) (A549 cells [5]; 48-hour treatment, 0.3-10 μM) | Cell cycle distribution (NIM DAPI) (A549 cells [5]; 72-hour treatment, 0.3-10 μM) | Cell cycle distribution (NIM DAPI) (A549 cells [5]; summary of studies) | Concentration of peak hypomethylation (LINE-1) ([6]; 48 or 72 hours) | DNA hypomethylation (LINE-1 methylation) [6] | also measured |
| --- | --- | --- | --- | --- | --- | --- | --- | --- | --- | --- | --- | --- | --- | --- | --- | --- | --- | --- | --- | --- | --- |
| Nc1ncn([C@@H]2O[C@H](CO)[C@@H](O)[C@H]2O)c(=O)n1 [AZA, 4-amino-1-β-D-ribofuranosyl-1,3,5-triazin-2(1H)-one] | −0.8940 | 0.2413 | 1.74 µM | dramatic increase in early-apoptotic (AnnexinV^+7-AAD^−) and late-apoptotic (AnnexinV^+7-AAD^−) cells | dramatic increase in early-apoptotic (AnnexinV^+7-AAD^−) cells | −0.6352 | 0.8897 | 7.8 µM | 7.76 µM | induced | induced | −1.108 | 0.8033 | 6.4 µM | 6.36 µM | induced accumulation of cells in G2/M and Sub-G1 | induced accumulation of cells in G2/M and Sub-G1 | induced accumulation of cells in G2/M and Sub-G1 | 0.3-1 μM | induced DNA hypomethylation; also recorded: caused a decrease in LINE-1 methylation | Induction of DNA damage and cell death markers, concentration comparison (NSCLC cells): at lower concentrations than DAC; EC50 (H460 cells [1]; H460, 72 hours, read-out: EC50 of effect on viability): 1700 nM; EC50 (H460 cells [1]; Homo sapiens, NCI-H460, 72 h, H460, read-out: EC50 of effect on viability): 1240 nM; Concentrations affecting Histone H2AX phosphorylation and PARP cleavage (H1299 cells [3]): above 3 μM; Early- and late-apoptotic cell populations (AnnexinV/7-AAD) (H1299 cells [7]; 48-hour treatment): dramatic increase in early-apoptotic (AnnexinV^+ 7-AAD^−) and late-apoptotic (AnnexinV^+ 7-AAD^+) cells; Early- and late-apoptotic cell populations (AnnexinV/7-AAD) (H1299 cells [7]; 72-hour treatment): dramatic increase in early-apoptotic (AnnexinV^+ 7-AAD^−) and late-apoptotic (AnnexinV^+ 7-AAD^+) cells |
| Nc1ncn([C@H]2C[C@H](O)[C@@H](CO)O2)c(=O)n1 [DAC, 5-aza-2′-deoxycytidine] | −0.3814 | 2.053 | 113 µM | very slight increase in these cell populations; also recorded: very slight increase in this cell population | some increase in this cell population | −0.2958 | 2.452 | > 25 µM | 283 µM | did not have any effect | did not have any effect | −0.4617 | 1.556 | > 25 µM | 35.9 µM | induced an increase of cells in G2/M | induced an increase of cells in G2/M | induced an increase of cells in G2/M | 0.1 μM | induced DNA hypomethylation; also recorded: caused a decrease in LINE-1 methylation | EC50 (H460 cells [1]; Homo sapiens, NCI-H460, H460, 72 hours, read-out: EC50 of effect on viability): > 25000 nM; Induction of Histone H2AX phosphorylation (H1299 cells [3]; 6 days of treatment): induced strong; Induction of PARP cleavage (H1299 cells [3]; 6 days of treatment): failed to induce significant; Plasma levels [8]: 0.5 µM; Potency in decreasing LINE-1 methylation relative to AZA ([6]; 48 or 72 hours): 3- to 10 fold; Early- and late-apoptotic cell populations (AnnexinV/7-AAD) (H1299 cells [7]; 48-hour treatment): very slight increase in these cell populations; Early- and late-apoptotic cell populations (AnnexinV/7-AAD) (H1299 cells [7]; 72-hour treatment): very slight increase in these cell populations |
